# Source: US6127349A, “Phospholipid drug derivatives” (Amur Research Corporation, priority 1998, dated 2000)
# Columns and labels:
# [1] = tested on: cutaneous hypersensitivity immune response; assay: DNCB-induced cutaneous contact hypersensitivity (ear swelling); type: in vivo, mice (Balb/c); conditions: for cutaneous hypersensitivity immune response: 100 μg/day/mouse s.c., twelve days, ears rechallenged with 1% DNCB; for cutaneous hypersensitivity immune response / suppression of the response by dexamethasone: days 7-12; for suppression of the response by dexamethasone: steroid together with dexamethasone
# Method: The effects of DHEA-PC on cutaneous contact hypersensitivity was studied. In this study, mice (Balb/c) were immunologically challenged with DNCB (2 % in ethanol) applied to a 2 cm area on the back. The steroid was injected subcutaneously (100 μg/day/mouse) throughout the twelve-day study period. Ears were rechallenged with DNCB (1% in ethanol) on days 7-12 and swelling was measured daily in order to evaluate the effect on the immune system.
# [2] = oral; cited from earlier work
# [3] = oral administration, cited from earlier work
# [4] = literature; cited from earlier work
# [5] = cited from earlier work
# [6] = tested on: enzyme on lymphocyte cell membrane that cleaves phosphocholine from other compounds; assay: Stimulation of lymphocyte membrane enzyme that cleaves phosphocholine; type: biochemical; conditions: data not shown
# [7] = Partition of tritiated DHEA-phosphocholine reaction product between aqueous phase and benzene (scintillation counting); type: physicochemical
# Method: A dehydroepiandrosterone(DHEA)-phosphocholine derivative was synthesized as follows: 1 mg of phosphocholine (calcium salt; Sigma Chemical, St. Louis, Mo.) was dissolved in 0.5 ml of formamide (Cat # S-7503; Lot # 55HO257; Sigma Chemical) and 0.5 ml of pyridine (Cat # P-4036; Lot # 55H1489; Sigma Chemical). 0.025 mCi of (1,2,6,7 ^3 H(n)-Dehydroepiandrosterone (Cat # NET814; Lot # 3146097; 89.2 Ci/mmol; Dupont, NEN Products, Boston, Mass.) in 0.025 ml of ethanol was added. The reaction was catalyzed by the addition (as the dry solid) of 5 mg of dicyclohexylcarbodiimide (Cat # D-3129; Lot # 34hO647; Sigma Chemical). The reaction mixture was incubated overnight at room temperature. In the morning, 9 ml of water was added and the mixture extracted 3 times with 10 ml portions of benzene. The benzene extracts were combined and aliquots of both phases were counted in a scintillation counter. The results are set forth below:
# The aqueous layer was re-extracted with benzene. The second benzene extraction yielded 272 cpm (0.01 M1) as a confirmation.
# acidic sphingomylenase = assay: Hydrolysis of DHEA-PC by acidic sphingomyelinase; type: biochemical
# Method: (§1) DHEA-phosphocholine (DHEA-PC) was synthesized by sequential reaction of DHEA, choline, and water with phosphorous oxychloride. The synthetic product had the same HPLC retention time and the same mass-spectrum as did the endogenous, actual compound. […] When human serum extracts were analyzed, mass fragments were detected at the same retention time as synthetic material.
# neutral sphingomylenase = assay: Hydrolysis of DHEA-PC by neutral sphingomyelinase; type: biochemical
# Method: as §1
compound,measurement,setting,value
C[C@]12CC[C@H](OS(=O)(=O)O)CC1=CC[C@@H]1[C@@H]2CC[C@]2(C)C(=O)CC[C@@H]12 [DHEA-sulfate],cutaneous hypersensitivity immune response,[1],"similar, high level response"
same,suppression of the response by dexamethasone,[1],not suppressed by dexamethasone
C[C@]12CC[C@@H](O)C[C@H]1CC[C@@H]1[C@@H]2CC[C@]2(C)C(=O)CC[C@@H]12 [etiocholanolone],activity when administered orally,[2],only limited activity
same,inactivated on each pass through the liver,[3]; free compound,about 99%
same,biologically available fraction of the administered drug,[3],only a fraction of a percent
C[C@]12CC[C@H]3[C@@H](CCC4=CC(=O)CC[C@@]43C)[C@@H]1CC[C@@H]2O [testosterone],activity when administered orally,[2],only limited activity
O=C1N(Cc2ccc(CO)cc2)[C@H](Cc2ccccc2)[C@H](O)[C@@H](O)[C@@H](Cc2ccccc2)N1Cc1ccc(CO)cc1 [DMP-323],aqueous solubility,[4],low aqueous solubility
same,bioavailability upon administration to patients,[5],variability in the compounds bioavailability
same,efficacy,[5]; patients,inconsistent efficacy
C[C@@H]1C[C@H]2[C@@H]3CCC4=CC(=O)C=C[C@]4(C)[C@@]3(F)[C@@H](O)C[C@]2(C)[C@@]1(O)C(=O)CO [dexamethasone],immune response with dexamethasone administered by itself,[1]; versus control,suppressed the immune response below the control
TGF-α: stimulates lymphocyte membrane enzyme that cleaves phosphocholine,stimulation of enzyme activity,[6],ten-fold
"C[C@]12CC[C@H](O)CC1=CC[C@@H]1[C@@H]2CC[C@]2(C)C(=O)CC[C@@H]12 [DHEA, dehydroepiandrosterone]",activity when administered orally,[2],only limited activity
same,cutaneous hypersensitivity immune response,[1],"similar, high level response"
same,suppression of the response by dexamethasone,[1],not suppressed by dexamethasone
same,extraction of free starting material into benzene,"[7]; water/benzene, expected with this protocol",extracted quantitatively into benzene
C[C@]12CC[C@@H]3c4ccc(O)cc4CC[C@H]3[C@@H]1CC[C@@H]2O [estradiol],activity when administered orally,[2],only limited activity
"C[C@]12CC[C@H](OP(=O)([O-])OCC[N+](C)(C)C)CC1=CC[C@@H]1[C@@H]2CC[C@]2(C)C(=O)CC[C@@H]12 [DHEA-PC, DHEA-3-PHOSPHOCHOLINE]",cutaneous hypersensitivity immune response,[1],enhanced the cutaneous hypersensitivity immune response similar to native steroids
same,dinitrochlorobenzene-induced sensitization,[1]; administered to mice,potentiated dinitrochlorobenzene-induced sensitization
same,suppression of the response by dexamethasone,[1],not suppressed by dexamethasone
same,hydrolysis by acidic sphingomylenase,acidic sphingomylenase,not by acidic sphingomylenase
same,second benzene extraction radioactivity,"[7]; 0.01 M1 aliquot, re-extraction of the aqueous layer with benzene",272 cpm
same,Aqueous Phase radioactivity,"[7]; 0.01 ml aliquot, after 3 benzene extractions","10,729 cpm"
same,Benzene Phase radioactivity,"[7]; 0.01 ml aliquot, combined benzene extracts","1,121 cpm"
same,phase in which the reaction product is found,[7]; water/benzene,remains in the aqueous phase
same,hydrolysis by neutral sphingomylenase,neutral sphingomylenase,hydrolyzed by neutral sphingomylenase
